These results are taken from ChEMBL document CHEMBL4814031, “In pursuit of a selective hepatocellular carcinoma therapeutic agent: Novel thalidomide derivatives with antiproliferative, antimigratory and STAT3 inhibitory properties” (Eur J Med Chem, 2021).

The source made the active and inactive calls. No cut-off for these calls is given here.

Data set [1] is described as follows: Antiproliferative activity against mouse BMOL-NT cells assessed as cell growth inhibition at 10 uM measured every 4 hrs for 3 days by IncuCyte zoom live cell analysis relative to control. The data set is classed as cell-based. Particulars: time 3 day; for inhibition at 72 h, 10 µM: BMOL-NT cells; for Activity: bmol-nt, 72 h, 10 µM.
The next data set concerns BMOL-T. Nature of the data set: Antiproliferative activity against mouse BMOL-T cells assessed as cell growth inhibition at 10 uM measured every 4 hrs for 3 days by IncuCyte zoom live cell analysis relative to control. It counts as functional. The following applies: time 3.0 day.
Data set [2] in a line: Antiproliferative activity against mouse BMOL-NT cells assessed as cell growth by measuring doubling time at 10 uM measured every 4 hrs for 3 days by IncuCyte zoom live cell analysis (reference value: 18 to 19 hrs). The following applies: 72 h, time 3 day. It counts as cell-based.
A short description of data set [3]: Antiproliferative activity against mouse BMOL-T cells assessed as cell growth by measuring doubling time at 10 uM measured every 4 hrs for 3 days by IncuCyte zoom live cell analysis (reference value: 14.3 to 15 hrs). It counts as functional. The following applies: time 3 day.
Data set [4] can be described thus: Antiproliferative activity against mouse BMOL-T cells assessed as change in doubling time at 10 uM measured every 4 hrs for 3 days by IncuCyte zoom live cell analysis relative to control. The data set is classed as functional. The following applies: time 3 day.
The nature of data set [5]: Antiproliferative activity against mouse BMOL-NT cells assessed as change in doubling time at 10 uM measured every 4 hrs for 3 days by IncuCyte zoom live cell analysis relative to control. It counts as cell-based. The following applies: 72 h, time 3 day.
A short description of data set [6]: Selectivity for antiproliferative activity against mouse BMOL-T cells over mouse BMOL-NT cells at 10 uM measured every 4 hrs for 3 days by IncuCyte zoom live cell analysis. The following applies: time 3 day.

For the compound `CCCCc1ccc(Nc2cccc3c2C(=O)N(C2CCC(=O)NC2=O)C3=O)cc1` (stereo not given), in data set [1], the inhibition at 72 h, 10 µM was at most 10%. Besides, in the data set with BMOL-T, the result was Active.
For `CC(C)c1ccc(Nc2ccc3c(c2)C(=O)N(C2CCC(=O)NC2=O)C3=O)cc1` (stereo not given), the figures for the Time in data set [2] and in data set [3] were 17.2 h and 14.1 h, respectively. Moreover, the Activity in data set [4] was found to be 3%.
The matching figures for `CC(C)c1ccc(Oc2cccc3c2C(=O)N(C2CCC(=O)NC2=O)C3=O)cc1` (stereo not given): 17.5 h, 15.4 h and 5%.
`CNC(=O)c1cc(Oc2ccc(NC(=O)Nc3ccc(Cl)c(C(F)(F)F)c3)cc2)ccn1` [SORAFENIB]: the Time came out at 50 h in data set [2] and 71 h in data set [3]. The Activity in data set [5] stood at 181%; in data set [4], 382%. The Selectivity ratio in data set [6] is reported as 2.1.
With `CCc1ccc(Nc2cccc3c2C(=O)N(C2CCC(=O)NC2=O)C3=O)cc1` (stereo not given), the inhibition at 72 h, 10 µM in data set [1] is at most 10%. Besides, the result in the data set on BMOL-T was Active.
With `O=C1CCC(N2C(=O)c3ccccc3C2=O)C(=O)N1` (stereo not given) [THALIDOMIDE], the Time in data set [2] was 18 h; in data set [3], 15 h.
Consider `O=C1CCC(N2C(=O)c3cccc(Sc4ncccn4)c3C2=O)C(=O)N1` (stereo not given), for which the Activity result in data set [1] is recorded as “Non-Toxic”.
For the compound `Cc1ccccc1Nc1cccc2c1C(=O)N(C1CCC(=O)NC1=O)C2=O` (stereo not given), the outcome in the data set with BMOL-T was inactive.
Consider `CC(C)c1ccc(Nc2cccc3c2C(=O)N(C2CCC(=O)NC2=O)C3=O)cc1` (stereo not given), for which the figures for the Time in data set [2] and in data set [3] were 17.3 h and 16.3 h, respectively. Besides, in data set [4], the Activity was found to be 19%.
With `O=C1CCC(N2C(=O)c3cccc(Sc4ccc5ccccc5n4)c3C2=O)C(=O)N1` (stereo not given), the Activity entry in data set [1] is listed as “Non-Toxic”.
On to `CC(C)c1ccc(Cc2cccc3c2C(=O)N(C2CCC(=O)NC2=O)C3=O)cc1` (stereo not given), for which the Time amounted to 17.5 h in data set [2] and 17 h in data set [3]. Besides, in data set [4], the Activity is 17%.
For `CN(C)c1ccc(Nc2cccc3c2C(=O)N(C2CCC(=O)NC2=O)C3=O)cc1` (stereo not given), the result with BMOL-T was Active.
`COc1ccc(Nc2cccc3c2C(=O)N(C2CCC(=O)NC2=O)C3=O)cc1` (stereo not given): the outcome in the data set on BMOL-T was Active.
As for `Cc1ccc(Sc2cccc3c2C(=O)N(C2CCC(=O)NC2=O)C3=O)cc1` (stereo not given), in data set [2], the Time stood at 19.3 h.
`COc1ccc(Sc2cccc3c2C(=O)N(C2CCC(=O)NC2=O)C3=O)cc1` (stereo not given): the Activity result in data set [1] is given as “Toxic”.
`O=C1CCC(N2C(=O)c3cccc(Nc4ccc(O)cc4)c3C2=O)C(=O)N1` (stereo not given): in the data set with BMOL-T, the outcome was Active.
On to `O=C1CCC(N2C(=O)c3cccc(Nc4ccccc4)c3C2=O)C(=O)N1` (stereo not given), for which the figures for the Time in data set [2] and in data set [3] were 17.4 h and 14.3 h, respectively. Besides, in data set [4], the Activity was found to be 7%.
Regarding `O=C1CCC(N2C(=O)c3cccc(Nc4ccc5c(c4)CCCC5)c3C2=O)C(=O)N1` (stereo not given), the inhibition at 72 h, 10 µM in data set [1] is at most 10%. For the same compound, the result in the data set on BMOL-T was Active.
Turning to `O=C1CCC(N2C(=O)c3cccc(Sc4ccc(C(F)(F)F)cc4)c3C2=O)C(=O)N1` (stereo not given), in the data set with BMOL-T, the result was inactive.
As to `O=C1CCC(N2C(=O)c3cccc(Sc4ccc(C(F)(F)F)cn4)c3C2=O)C(=O)N1` (stereo not given), the result with BMOL-T was inactive.
As to `O=C1CCC(N2C(=O)c3cccc(Oc4ccccc4)c3C2=O)C(=O)N1` (stereo not given), the Time in data set [2] worked out at 16.9 h; in data set [3], 14.3 h. Further, the Activity in data set [4] stood at 6%.
As to `O=C1CCC(N2C(=O)c3cccc(Sc4ccccc4)c3C2=O)C(=O)N1` (stereo not given), the Time was 16.8 h in data set [2] and 13.8 h in data set [3]. Moreover, the Activity in data set [5] is 1%; in data set [4], 2%.
For the compound `Nc1cccc2c1C(=O)N(C1CCC(=O)NC1=O)C2=O` (stereo not given) [POMALIDOMIDE], the Time in data set [2] is 18 h; in data set [3] it was 15 h.
Consider `CC(C)c1ccc(S(=O)(=O)c2cccc3c2C(=O)N(C2CCC(=O)NC2=O)C3=O)cc1` (stereo not given), for which the Time in data set [2] was found to be 17.4 h; in data set [3], 14.9 h. The Activity in data set [5] and in data set [4] was 3% in each case.
Turning to `CC(C)Oc1ccc(Nc2cccc3c2C(=O)N(C2CCC(=O)NC2=O)C3=O)cc1` (stereo not given), the result in the data set on BMOL-T was Active.
Take `O=C1CCC(N2C(=O)c3ccc(Nc4ccccc4)cc3C2=O)C(=O)N1` (stereo not given): the Time in data set [2] amounted to 17.4 h; in data set [3], 14.7 h. In addition, the Activity in data set [4] was found to be 4%.
`O=C1CCC(N2C(=O)c3cccc(Nc4ccccn4)c3C2=O)C(=O)N1` (stereo not given): the Activity entry in data set [1] is reported as “Toxic”.
For `CC(C)c1ccc(Sc2cccc3c2C(=O)N(C2CCC(=O)NC2=O)C3=O)cc1` (stereo not given), the Time came to 17.2 h in data set [2] and 16.2 h in data set [3]. Also, the Activity in data set [5] turned out to be 3%; in data set [4], 19%.
For `Cc1ccc(Nc2cccc3c2C(=O)N(C2CCC(=O)NC2=O)C3=O)cc1` (stereo not given), in the data set on BMOL-T, the outcome was inactive.
Consider `O=C1CCC(N2C(=O)c3cccc(Cc4ccccc4)c3C2=O)C(=O)N1` (stereo not given), for which the Time was found to be 17.7 h in data set [2] and 13.8 h in data set [3]. In addition, the Activity in data set [5] was found to be 2%.
For the compound `CCCc1ccc(Nc2cccc3c2C(=O)N(C2CCC(=O)NC2=O)C3=O)cc1` (stereo not given), the outcome with BMOL-T was Active.

In general, inhibition refers to the share of the control response that was lost under treatment.
